This note sets out measurements from US11976061B2, “Preparation of benzimidazolone derivatives as novel diacylglyceride O-acyltransferase 2 inhibitors” (Merck Sharp & Dohme LLC, priority 2020, dated 2024).

The target of the first experiment is T1, human DGAT2 (hDGAT2) (Homo sapiens, UniProt Q96PD7).
T1 construct: made in house; host or cells: Sf-9 insect cells (baculovirus), membrane fraction
T1 sequence (Q96PD7 1-388): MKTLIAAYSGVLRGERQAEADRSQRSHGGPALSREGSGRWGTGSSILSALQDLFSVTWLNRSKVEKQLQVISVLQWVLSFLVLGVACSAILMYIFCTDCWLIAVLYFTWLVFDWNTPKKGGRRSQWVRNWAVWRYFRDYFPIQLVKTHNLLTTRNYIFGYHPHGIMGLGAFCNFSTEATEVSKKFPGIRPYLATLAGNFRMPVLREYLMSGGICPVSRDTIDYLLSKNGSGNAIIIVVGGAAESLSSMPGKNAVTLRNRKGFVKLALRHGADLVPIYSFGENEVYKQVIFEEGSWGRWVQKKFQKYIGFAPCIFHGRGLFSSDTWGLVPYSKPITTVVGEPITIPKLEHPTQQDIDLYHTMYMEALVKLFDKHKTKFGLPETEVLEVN
Description: DGAT2 Enzymatic Activity Assay. Type of experiment: biochemical. The conditions noted are these: membrane prep of Sf-9 cells expressing hDGAT2; 25 μM diolein, 5 μM 13C oleoyl-CoA; 13C18-triolein by LC/MS/MS; read-out: DGAT2 IC50. On the procedure:
Insect Cell Expression and Membrane Preparation
Sf-9 insect cells were maintained in Grace's insect cell culture medium with 10% heated-inactivated fetal bovine serum, 1% Pluronic F-68 and 0.14 μg/ml Kanamycine sulfate at 27° C. in a shaker incubator. After infection with untagged baculovirus expressing human DGAT2 (hDGAT2) at multiplicity of infection (MOI) 3 for 48 hours, cells were harvested. Cell pellets were suspended in buffer containing 10 mM Tris-HCl pH 7.5, 1 mM EDTA, 250 mM sucrose and Complete Protease Inhibitor Cocktail (Sigma Aldrich), and sonicated on ice. Cell debris were removed by centrifugation at 2000×g for 15 minutes. Membrane fractions were isolated by ultracentrifugation (100,000×g), resuspended in the same buffer, and frozen (−80° C.) for later use. The protein concentration was determined with the Pierce™ BCA Protein Assay Kit (Thermo Fisher Scientific). Expression of protein levels was analyzed by immunoblotting with rabbit anti-DGAT2 antibody (Abcam, ab102831) and donkey anti-rabbit IgG H&L Alexa Fluor® 647 (Abcam, ab150075) followed by detection using Typhoon FLA9000 (GE Healthcare).
LC/MS/MS analyses were performed using Thermal Fisher's LX4-TSQ Vantage system. This system consists of an Agilent binary high-performance liquid chromatography (HPLC) pump and a TSQ Vantage triple quadrupole MS/MS instrument. For each sample, 2 μL samples from the top organic layer of in-plate liquid-liquid extraction were injected onto a Thermo Betabasic C4 column (2.1 mm×20 mm, 5 μm particle size). The samples were then eluted using the following conditions; mobile phase: Isopropanol:acetonitrile/10 mM ammonium formate=50/35/15 (v/v/v), flow rate: 0.8 mL/min, temperature: 25° C. Data was acquired in positive mode using a heated electrospray ionization (HESI) interface. The operational parameters for the TSQ Vantage MS/MS instrument were a spray voltage of 3000 V, capillary temperature of 280° C., vaporizer temperature 400° C., sheath gas 45 arbitrary unit, Aux gas 10 arbitrary units, S-lens 165 and collision gas 1.0 mTorr. […] (SRM) chromatograms of ^13C18-triolein (Q1: 920.8>Q3: 621.3) and internal standard ^13C21-triolein (Q1: 923.8>Q3: 617.3) were collected for 33 sec. The peak area was integrated by Xcalibur Quan software. The ratio between the ^13C18triolein generated in the reaction and spiked in internal standard ^13C21-triolein was used to generate percentage inhibition and IC50 values. Compound percentage inhibition was calculated by the following formula: Inhibition %=1−[(compound response−low control)/(high control−low control)]×100%. Potent compounds were titrated and IC50 were calculated by 4 parameter sigmoidal curve fitting formula.
DGAT2 Enzymatic Activity Assay
DGAT2 activity was determined by measuring the amount of enzymatic product ^13C18-triolein (^13C-1,2,3-Tri(cis-9-octadecenoyl)glycerol) using the membrane prep mentioned above. The assay was carried out in ABgene 384-well assay plates in a final volume of 25 μL at rt. The assay mixture contained the following: assay buffer (100 mM Tris·Cl, pH 7.0, 20 mM MgCl2, 5% ethanol), 25 μM of diolein, 5 μM of ^13C oleoyl-CoA and 8 ng/μL of DGAT2 membrane.
In the case of `CCn1cc(CNC(=O)c2ccc3c(c2)n(C(C)C)c(=O)n3-c2cccc(OC(F)F)c2)cn1` [Example 63, 1-(3-(difluoromethoxy)phenyl)-N-((1-ethyl-1H-pyrazol-4-yl)methyl)-3-isopropyl-2-oxo-2,3-dihydro-1H-benzo[d]imidazole-5-carboxamide], the IC50 is more than 9990 nM. On to `CC(C)n1c(=O)n(-c2cccc(C#N)c2)c2ccc(C(=O)NC3(C)CCS(=O)(=O)CC3)cc21` [Example 52, 1-(3-cyanophenyl)-3-isopropyl-N-(4-methyl-1,1-dioxidotetrahydro-2H-thiopyran-4-yl)-2-oxo-2,3-dihydro-1H-benzo[d]imidazole-5-carboxamide], for which the IC50 is more than 9990 nM. In the case of `CC(C)n1c(=O)n(-c2cccc(C(F)(F)F)c2)c2ccc(C(=O)NC3(C)CCS(=O)(=O)CC3)cc21` [Example 53, 3-isopropyl-N-(4-methyl-1,1-dioxidotetrahydro-2H-thiopyran-4-yl)-2-oxo-1-(3-(trifluoromethyl)phenyl)-2,3-dihydro-1H-benzo[d]imidazole-5-carboxamide], the half-maximal inhibitory concentration (IC50) was determined as 1830 nM. Turning to `CC(C)n1c(=O)n(-c2cccc(OC(F)F)c2)c2ncc(C(=O)N[C@@]3(C)CCS(=O)(=O)C3)cc21` [Example 89, 3-[3-(difluoromethoxy)phenyl]-1-isopropyl-N-[(3S)-3-methyl-1,1-dioxo-thiolan-3-yl]-2-oxo-imidazo[4,5-b]pyridine-6-carboxamide], the IC50 worked out at 288 nM. As for `CNS(=O)(=O)c1cccc(-n2c(=O)n(C(C)C)c3cc(C(=O)NC4(C)CCS(=O)(=O)CC4)ccc32)c1` [Example 57, 3-isopropyl-N-(4-methyl-1,1-dioxidotetrahydro-2H-thiopyran-4-yl)-1-(3-(N-methylsulfamoyl)phenyl)-2-oxo-2,3-dihydro-1H-benzo[d]imidazole-5-carboxamide], the 50% inhibitory concentration (IC50) was more than 9990 nM. Still for that read-out and setting: as for `CC(C)n1c(=O)n(-c2cccc(OC(F)F)c2)c2c(F)cc(C(=O)N[C@@]3(C)CCS(=O)(=O)C3)cc21` [Example 109, 1-[3-(difluoromethoxy)phenyl]-7-fluoro-3-isopropyl-N-[(3S)-3-methyl-1,1-dioxo-thiolan-3-yl]-2-oxo-benzimidazole-5-carboxamide], the figure is 9 nM. On the same count and under the same terms, the figure for `CCOc1cccc(-n2c(=O)n(C(C)C)c3cc(C(=O)N[C@]4(C)CCS(=O)(=O)C4)cnc32)c1` [Example 98, 3-(3-ethoxyphenyl)-1-isopropyl-N-[(3R)-3-methyl-1,1-dioxo-thiolan-3-yl]-2-oxo-imidazo[4,5-b]pyridine-6-carboxamide] is 102 nM; for `CC(C)Oc1cc(-n2c(=O)n(C(C)C)c3cc(C(=O)NC4(C)CCS(=O)(=O)CC4)ccc32)c(F)cn1` [Example 51, 1-(5-fluoro-2-isopropoxypyridin-4-yl)-3-isopropyl-N-(4-methyl-1,1-dioxidotetrahydro-2H-thiopyran-4-yl)-2-oxo-2,3-dihydro-1H-benzo[d]imidazole-5-carboxamide] it is 251 nM.

The same experiment, now with this note: membrane prep of Sf-9 cells expressing hDGAT2; 25 μM diolein, 5 μM 13C oleoyl-CoA; 13C18-triolein by LC/MS/MS; read-out: Human DGAT2 IC50.
For `CC(C)n1c(=O)n(-c2cccc(OC(F)(F)F)c2)c2ccc(C(=O)NC3(C)CCS(=O)(=O)CC3)cc21` [Example 10, 3-isopropyl-N-(4-methyl-1,1-dioxo-thian-4-yl)-2-oxo-1-[3-(trifluoromethoxy)phenyl]benz-imidazole-5-carboxamide], the IC50 is 153 nM. As to `C[C@@]1(NC(=O)c2ccc3c(c2)n(-c2ccc(F)cc2)c(=O)n3-c2ccc(F)cc2)CCS(=O)(=O)C1` [Example 1, (R)-1,3-bis(4-fluorophenyl)-N-(3-methyl-1,1-dioxidotetrahydrothiophen-3-yl)-2-oxo-2,3-dihydro-1H-benzo[d]imidazole-5-carboxamide], the half-maximal inhibitory concentration (IC50) came to 573 nM.

Turning to `CC(C)n1c(=O)n(-c2cccc(OC(F)F)c2)c2ccc(C(=O)NC3(C)CS(=O)(=O)C3)nc21` [Example 107, 1-(3-(difluoromethoxy)phenyl)-3-isopropyl-N-(3-methyl-1,1-dioxidothietan-3-yl)-2-oxo-2,3-dihydro-1H-imidazo[4,5-b]pyridine-5-carboxamide], the half-inhibitory concentration (IC50) was found to be 1080 nM.

Broadly, the IC50 is the midpoint of a concentration-inhibition curve.
